From ChEMBL document CHEMBL5724914, “Linking interpersonal differences in gut microbiota composition and drug biotransformation activity” (2024)

Assays:
[1] = human gut metagenome, 24 h, 2 µM
[2] = (§1) The drug is tested on Z-027 corresponding to metagenome with ENA study accession number: PRJEB37062 and ENA sample accession number: ERS12561826 for biotransformation under anaerobic condition. The drug concentrations were measured over 9 timepoints collected between 0 and 24 hours of incubation by liquid-chromatography-coupled mass spectrometry (LC–MS); details: 2 µM
[3] = (§2) The drug is tested on Z-029 corresponding to rat gut metagenome with ENA study accession number: PRJEB37062 and ENA sample accession number: ERS12561828 for biotransformation under anaerobic condition. The drug concentrations were measured over 9 timepoints collected between 0 and 24 hours of incubation by liquid-chromatography-coupled mass spectrometry (LC–MS); details: 2 µM
[4] = human gut metagenome, 24 h, 2 µM; remark: listed apart in the source
[5] = as §2, with “on Z-022” for “on Z-029”, “to mouse” for “to rat”, “number: ERS12561821” for “number: ERS12561828”; details: 2 µM
[6] = as §2, with “on WLS-038” for “on Z-029”, “to human” for “to rat”, “number: ERS12561745” for “number: ERS12561828”; details: 2 µM
[7] = as §1, with “Z-010” for “Z-027”, “ERS12561810” for “ERS12561826”; details: 2 µM
[8] = human gut metagenome, 24 h, 2 µM; remark: listed apart in the source
[9] = human gut metagenome, 24 h, 2 µM; remark: listed apart in the source
[10] = human gut metagenome, 24 h, 2 µM; remark: listed apart in the source
[11] = as §2, with “on WLS-170” for “on Z-029”, “to human” for “to rat”, “number: ERS12561762” for “number: ERS12561828”; details: 2 µM
[12] = as §2, with “on WLS-069” for “on Z-029”, “to human” for “to rat”, “number: ERS12561748” for “number: ERS12561828”; details: 2 µM
[13] = human gut metagenome, 24 h, 2 µM; remark: listed apart in the source
[14] = as §2, with “on Z-001” for “on Z-029”, “to mouse” for “to rat”, “number: ERS12561801” for “number: ERS12561828”; details: 2 µM
[15] = human gut metagenome, 24 h, 2 µM; remark: listed apart in the source
[16] = human gut metagenome, 24 h, 2 µM; remark: listed apart in the source
[17] = as §2, with “on WLS-052” for “on Z-029”, “to human” for “to rat”, “number: ERS12561747” for “number: ERS12561828”; details: 2 µM
[18] = as §2, with “on Z-028” for “on Z-029”, “to mouse” for “to rat”, “number: ERS12561827” for “number: ERS12561828”; details: 2 µM
[19] = human gut metagenome, 24 h, 2 µM; remark: listed apart in the source
[20] = as §1, with “Z-023” for “Z-027”, “ERS12561822” for “ERS12561826”; details: 2 µM
Further: call rule not given here.

Row | Compound | Bacterial Biotransformation [1] | Bacterial Biotransformation [2] | Bacterial Biotransformation [3] | Bacterial Biotransformation [4] | Bacterial Biotransformation [5] | Bacterial Biotransformation [6] | Bacterial Biotransformation [7] | Bacterial Biotransformation [8] | Bacterial Biotransformation [9] | Bacterial Biotransformation [10] | Bacterial Biotransformation [11] | Bacterial Biotransformation [12] | Bacterial Biotransformation [13] | Bacterial Biotransformation [14] | Bacterial Biotransformation [15] | Bacterial Biotransformation [16] | Bacterial Biotransformation [17] | Bacterial Biotransformation [18] | Bacterial Biotransformation [19] | Bacterial Biotransformation [20]
1 | CN1CCC(OC(c2ccccc2)c2ccccc2)CC1 | Compound NOT metabolized | Compound NOT metabolized | Compound NOT metabolized | Compound NOT metabolized | Compound NOT metabolized | Compound NOT metabolized | Compound NOT metabolized | Compound metabolized | Compound metabolized | Compound metabolized | Compound metabolized | Compound NOT metabolized | Compound metabolized | Compound NOT metabolized | Compound metabolized | Compound NOT metabolized | Compound NOT metabolized | Compound NOT metabolized | Compound NOT metabolized | Compound metabolized
2 | CC1=C(CC(=O)O)c2cc(F)ccc2/C1=C\c1ccc([S+](C)[O-])cc1 (stereo not drawn) | Compound metabolized | Compound NOT metabolized | Compound metabolized | Compound metabolized | Compound NOT metabolized | Compound metabolized | Compound NOT metabolized | Compound metabolized | Compound metabolized | Compound metabolized |  | Compound metabolized | Compound metabolized | Compound NOT metabolized | Compound NOT metabolized | Compound metabolized | Compound metabolized | Compound NOT metabolized | Compound metabolized | Compound metabolized
3 | CCOC(=O)[C@H](CCc1ccccc1)N[C@@H](C)C(=O)N1Cc2ccccc2C[C@H]1C(=O)O | Compound metabolized | Compound NOT metabolized | Compound NOT metabolized | Compound metabolized | Compound NOT metabolized | Compound metabolized | Compound NOT metabolized | Compound metabolized | Compound NOT metabolized | Compound metabolized | Compound metabolized | Compound metabolized | Compound NOT metabolized | Compound NOT metabolized | Compound metabolized | Compound NOT metabolized | Compound metabolized | Compound NOT metabolized | Compound metabolized | Compound metabolized
4 | CCN1CCCC1CNC(=O)c1cc(S(=O)(=O)CC)c(N)cc1OC (stereo not drawn) [AMISULPRIDE] | Compound metabolized | Compound NOT metabolized | Compound NOT metabolized | Compound NOT metabolized | Compound NOT metabolized | Compound NOT metabolized | Compound NOT metabolized | Compound metabolized | Compound NOT metabolized | Compound NOT metabolized | Compound metabolized | Compound NOT metabolized | Compound NOT metabolized | Compound NOT metabolized | Compound NOT metabolized | Compound NOT metabolized | Compound NOT metabolized | Compound NOT metabolized | Compound NOT metabolized | Compound NOT metabolized
5 | CC(C)NCC(O)COc1ccc(CC(N)=O)cc1 (stereo not drawn) [ATENOLOL] | Compound metabolized | Compound NOT metabolized | Compound NOT metabolized | Compound NOT metabolized | Compound NOT metabolized | Compound NOT metabolized | Compound NOT metabolized | Compound NOT metabolized | Compound NOT metabolized | Compound NOT metabolized | Compound metabolized | Compound metabolized | Compound NOT metabolized | Compound NOT metabolized | Compound NOT metabolized | Compound NOT metabolized | Compound NOT metabolized | Compound NOT metabolized | Compound NOT metabolized | Compound NOT metabolized
6 | CC(=O)OCC(=O)[C@@]1(OC(C)=O)[C@@H](C)C[C@H]2[C@@H]3C[C@H](F)C4=CC(=O)C=C[C@]4(C)[C@@]3(F)[C@@H](O)C[C@@]21C [DIFLORASONE DIACETATE] | Compound metabolized | Compound NOT metabolized | Compound NOT metabolized | Compound metabolized | Compound NOT metabolized | Compound metabolized | Compound metabolized | Compound metabolized | Compound metabolized | Compound metabolized | Compound metabolized | Compound metabolized | Compound metabolized | Compound metabolized | Compound metabolized | Compound metabolized | Compound metabolized | Compound metabolized | Compound metabolized | Compound NOT metabolized
7 | C#C[C@]1(OC(C)=O)CC[C@H]2[C@@H]3CCC4=C[C@@H](OC(C)=O)CC[C@@H]4[C@H]3CC[C@@]21C [ETHYNODIOL DIACETATE] | Compound metabolized | Compound metabolized | Compound NOT metabolized | Compound metabolized | Compound metabolized | Compound metabolized | Compound metabolized | Compound metabolized |  | Compound metabolized | Compound metabolized | Compound metabolized | Compound metabolized | Compound metabolized | Compound metabolized | Compound metabolized | Compound metabolized | Compound metabolized | Compound metabolized | Compound metabolized
8 | C[C@]12C=CC(=O)C=C1CC[C@@H]1[C@@H]2C(=O)C[C@@]2(C)[C@H]1CC[C@]2(O)C(=O)CO [PREDNISONE] | Compound metabolized | Compound NOT metabolized | Compound metabolized | Compound metabolized | Compound metabolized | Compound metabolized | Compound metabolized |  | Compound NOT metabolized | Compound metabolized | Compound metabolized | Compound metabolized | Compound metabolized | Compound metabolized | Compound NOT metabolized | Compound metabolized | Compound metabolized | Compound metabolized | Compound metabolized | Compound metabolized
9 | N#Cc1ccc2[nH]cc(CCCCN3CCN(c4ccc5oc(C(N)=O)cc5c4)CC3)c2c1 [VILAZODONE] | Compound metabolized | Compound NOT metabolized | Compound NOT metabolized | Compound metabolized | Compound metabolized |  | Compound metabolized | Compound metabolized | Compound metabolized |  | Compound metabolized |  |  | Compound metabolized | Compound metabolized | Compound metabolized | Compound metabolized | Compound metabolized | Compound metabolized | Compound metabolized
